# Columns and labels:
# isocitrate lyase (ICL) [1] = molecular target: T1, isocitrate lyase (ICL) (Candida albicans, UniProt Q9P8Q7); assay: biochemical
# T1 construct: gene ICL1; purified recombinant ICL
# isocitrate lyase (ICL) [2] = molecular target: T1, isocitrate lyase (ICL); assay: enzyme assay, absorbance at […] nm (phenylhydrazine); Lineweaver-Burk and Dixon plots; format: biochemical
# T1 sequence (Q9P8Q7 whole entry): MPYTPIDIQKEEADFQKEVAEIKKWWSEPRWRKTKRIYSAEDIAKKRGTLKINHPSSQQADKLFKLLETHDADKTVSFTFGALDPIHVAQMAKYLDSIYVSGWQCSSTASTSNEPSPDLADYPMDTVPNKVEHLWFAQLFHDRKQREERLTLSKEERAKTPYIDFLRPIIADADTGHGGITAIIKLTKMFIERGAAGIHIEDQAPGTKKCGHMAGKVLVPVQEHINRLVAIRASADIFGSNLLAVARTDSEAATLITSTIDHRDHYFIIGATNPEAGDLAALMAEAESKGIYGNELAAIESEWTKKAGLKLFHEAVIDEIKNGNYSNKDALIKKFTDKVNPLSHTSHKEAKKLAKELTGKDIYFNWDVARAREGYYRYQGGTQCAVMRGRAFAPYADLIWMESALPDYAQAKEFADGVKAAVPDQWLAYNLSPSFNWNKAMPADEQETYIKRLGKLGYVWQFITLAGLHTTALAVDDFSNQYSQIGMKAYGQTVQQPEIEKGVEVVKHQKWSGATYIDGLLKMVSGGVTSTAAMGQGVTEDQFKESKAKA
smiles,measurement,setting,value
"O=C(O)CC[N+](=O)[O-] [3-nitropropionate, reference compound]",IC50,isocitrate lyase (ICL) [1],21.5 µM
"CS[C@]12CC[C@H](O)[C@H]1C(=O)NC2=O [compound 1, bacillimide]",IC50,isocitrate lyase (ICL) [2],44.2 µM
"C[S+]([O-])CCNC(=O)c1ccc[nH]1 (stereo not drawn) [compound 2, N-(2-(methylsulfinyl)ethyl)-1H-pyrrole-2-carboxamide]",IC50,isocitrate lyase (ICL) [1]; read-out: ICL IC50,190 µM
